The target of the assay is T1, recombinant LRRK2 kinase (Homo sapiens, UniProt Q5S007).
T1 construct: purchased Signal Chem, Richmond, BC, Canada
Kind of assay: LRRK2 kinase inhibition (Kinase-Glo luminescence). Particulars: IC50 grade; 25 μmol/L ATP, LRRKtide, 30° C. 2 hours; read-out: Enzyme activity LRRK2. It is filed as biochemical. On the procedure: Upon completion of the reaction, an equal amount of Kinase-Glo (Promega, Madison, Wis.) solution was added thereto, followed by reaction for 40 minutes. A detection solution was added thereto, followed by further reaction at room temperature for 30 minutes. Then, IC50 of kinase was calculated by measuring the amount of luciferase using a microplate ELISA reader (Bio-Tek).
A general note: In Kinase-Glo more light means more ATP remaining.

The structures appear in SMILES notation.

Results on 30 compounds are retold here after US11208412B2 (DAEGU-GYEONGBUK MEDICAL INNOVATION FOUNDATION, priority 2017, dated 2021).

T1 sequence (Q5S007 whole entry): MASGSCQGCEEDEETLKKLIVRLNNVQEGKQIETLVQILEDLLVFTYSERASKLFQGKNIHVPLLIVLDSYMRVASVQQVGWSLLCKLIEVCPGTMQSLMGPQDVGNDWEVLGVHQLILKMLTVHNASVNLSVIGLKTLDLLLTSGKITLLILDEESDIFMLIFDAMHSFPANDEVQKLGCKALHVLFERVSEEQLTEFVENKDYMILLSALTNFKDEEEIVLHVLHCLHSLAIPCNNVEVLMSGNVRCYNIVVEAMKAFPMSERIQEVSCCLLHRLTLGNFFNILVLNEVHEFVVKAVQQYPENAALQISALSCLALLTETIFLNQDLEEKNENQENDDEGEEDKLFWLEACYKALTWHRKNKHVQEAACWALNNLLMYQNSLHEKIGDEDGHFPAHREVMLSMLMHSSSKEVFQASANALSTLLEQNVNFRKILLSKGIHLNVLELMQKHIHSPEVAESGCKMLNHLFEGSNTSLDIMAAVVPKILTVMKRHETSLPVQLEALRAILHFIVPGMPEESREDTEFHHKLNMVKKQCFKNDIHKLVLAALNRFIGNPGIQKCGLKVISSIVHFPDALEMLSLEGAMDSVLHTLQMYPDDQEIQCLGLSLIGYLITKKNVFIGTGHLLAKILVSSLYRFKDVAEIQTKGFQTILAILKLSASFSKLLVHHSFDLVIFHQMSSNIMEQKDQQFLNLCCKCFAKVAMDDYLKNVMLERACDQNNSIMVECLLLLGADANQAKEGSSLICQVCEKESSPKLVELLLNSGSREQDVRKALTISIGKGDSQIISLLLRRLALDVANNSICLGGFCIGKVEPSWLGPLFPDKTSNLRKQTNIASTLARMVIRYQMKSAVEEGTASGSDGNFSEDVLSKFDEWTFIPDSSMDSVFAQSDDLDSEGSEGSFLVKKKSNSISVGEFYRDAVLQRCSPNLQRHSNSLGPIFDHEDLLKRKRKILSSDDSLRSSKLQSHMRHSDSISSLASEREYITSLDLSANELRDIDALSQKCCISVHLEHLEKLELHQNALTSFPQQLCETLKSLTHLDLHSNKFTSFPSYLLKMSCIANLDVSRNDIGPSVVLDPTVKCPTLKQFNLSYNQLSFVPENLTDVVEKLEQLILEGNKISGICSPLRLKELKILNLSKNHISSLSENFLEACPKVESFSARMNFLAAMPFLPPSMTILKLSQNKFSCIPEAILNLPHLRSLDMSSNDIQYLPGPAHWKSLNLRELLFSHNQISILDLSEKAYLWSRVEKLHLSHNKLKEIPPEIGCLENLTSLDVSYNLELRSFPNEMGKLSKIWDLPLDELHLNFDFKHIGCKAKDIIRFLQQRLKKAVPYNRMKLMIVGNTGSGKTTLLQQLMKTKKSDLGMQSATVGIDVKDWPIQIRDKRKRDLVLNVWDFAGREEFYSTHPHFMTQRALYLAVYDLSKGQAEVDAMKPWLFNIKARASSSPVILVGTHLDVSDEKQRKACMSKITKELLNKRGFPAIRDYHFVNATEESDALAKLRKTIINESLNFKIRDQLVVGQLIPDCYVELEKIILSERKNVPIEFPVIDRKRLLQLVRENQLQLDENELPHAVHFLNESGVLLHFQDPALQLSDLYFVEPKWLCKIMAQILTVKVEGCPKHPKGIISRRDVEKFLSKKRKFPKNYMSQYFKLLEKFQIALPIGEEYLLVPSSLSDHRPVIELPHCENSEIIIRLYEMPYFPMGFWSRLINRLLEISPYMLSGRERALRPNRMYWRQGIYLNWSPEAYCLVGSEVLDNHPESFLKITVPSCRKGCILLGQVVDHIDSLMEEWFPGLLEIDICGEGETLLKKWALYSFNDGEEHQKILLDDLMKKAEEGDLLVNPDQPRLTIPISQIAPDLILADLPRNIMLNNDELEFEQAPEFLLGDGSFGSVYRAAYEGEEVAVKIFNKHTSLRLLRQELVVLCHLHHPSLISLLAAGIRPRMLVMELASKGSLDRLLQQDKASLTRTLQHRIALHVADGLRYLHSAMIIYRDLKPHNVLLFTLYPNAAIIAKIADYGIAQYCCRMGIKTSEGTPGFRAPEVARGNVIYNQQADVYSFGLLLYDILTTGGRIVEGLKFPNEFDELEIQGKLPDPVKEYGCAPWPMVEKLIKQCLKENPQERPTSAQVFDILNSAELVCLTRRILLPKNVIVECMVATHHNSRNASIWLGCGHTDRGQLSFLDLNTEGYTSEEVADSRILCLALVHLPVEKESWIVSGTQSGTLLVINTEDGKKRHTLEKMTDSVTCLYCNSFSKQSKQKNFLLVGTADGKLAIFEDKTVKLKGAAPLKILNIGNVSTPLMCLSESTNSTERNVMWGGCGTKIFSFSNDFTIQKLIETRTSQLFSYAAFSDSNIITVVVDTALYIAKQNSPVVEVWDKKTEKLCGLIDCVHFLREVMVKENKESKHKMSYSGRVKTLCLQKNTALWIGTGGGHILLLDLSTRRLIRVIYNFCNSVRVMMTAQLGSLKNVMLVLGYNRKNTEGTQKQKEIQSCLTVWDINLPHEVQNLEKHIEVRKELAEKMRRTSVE

For the compound `CCCNc1nc(Nc2ccc(C(=O)N3CCOCC3)cc2OC)nc2[nH]cc(C#N)c12` [Example 12, 2-((2-methoxy-4-(morpholine-4-carbonyl)phenyl)amino)-4-(propylamino)-7H-pyrrolo[2,3-d]pyrimidine-5-carbonitrile], the IC50 is less than 10 nM.
`COc1cc(C(=O)N2CCC(N3CCOCC3)CC2)ccc1Nc1nc(OC2CCOC2)c2c(C#N)c[nH]c2n1` (stereo not drawn) [Example 87, 2-((2-methoxy-4-(4-morpholinopiperidine-1-carbonyl)phenyl)amino)-4-((tetrahydrofuran-3-yl)oxy)-7H-pyrrolo[2,3-d]pyrimidine-5-carbonitrile]: the IC50 is less than 10 nM.
For the compound `COc1cc(C(=O)N2CCC(N3CCOCC3)CC2)ccc1Nc1nc(OC(C)C)c2c(C#N)c[nH]c2n1` [Example 91, 4-isoprofoxy-2-((2-methoxy-4-(4-morpholinopiperidine-1-carbonyl)phenyl)amino)-7H-pyrrolo[2,3-d] pyrimidine-5-carbonitrile], the IC50 is less than 10 nM.
Then `CCNc1nc(Nc2cnn(CCOC)c2Cl)nc2[nH]cc(C#N)c12` [Example 62, 2-((5-chloro-1-(2-methoxyethyl)-1H-pyrazole-4-yl)amino)-4-(ethylamino)-7H-pyrrolo[2,3-d]pyrimidine-5-carbonitrile], with less than 10 nM.
As for `CCNc1nc(Nc2ccc(C(=O)N3CCC(F)(F)CC3)cc2OC)nc2[nH]cc(C(F)(F)F)c12` [Example 110, (4,4-difluoropiperidine-1-yl)(4-((4-(ethylamino)-5-(trifluoromethyl)-7H-pyrrolo[2,3-d]pyrimidine-2-yl)amino)-3-methoxyphenyl)methanone], the IC50 is more than 100 nM.
Under `COc1cc(C(=O)N2CCC(F)(F)CC2)ccc1Nc1nc(NC2(C)CC2)c2c(C#N)c[nH]c2n1` [Example 45, 2-((4-(4,4-difluoropiperidine-1-carbonyl)-2-methoxyphenyl)amino)-4-((1-methylcyclopropyl)amino)-7H-pyrrolo[2,3-d]pyrimidine-5-carbonitrile] stands 10 to 100 nM.
`CCNc1nc(Nc2cc(F)c(C(=O)N3CCN(C)C[C@H]3C)cc2OC)nc2[nH]cc(C#N)c12` [Example 79, (R)-2-((4-(2,4-dimethylpiperazine-1-carbonyl)-5-fluoro-2-methoxyphenyl)amino)-4-(ethylamino)-7H-pyrrolo[2,3-d]pyrimidine-5-carbonitrile]: the IC50 is less than 10 nM.
As to `CNc1nc(Nc2ccc(C(=O)N3C[C@@H](C)O[C@@H](C)C3)cc2OC)nc2[nH]cc(C#N)c12` [Example 22, 2-((4-((2R,6S)-2,6-dimethylmorpholine-4-carbonyl)-2-methoxyphenyl)amino)-4-(methylamino)-7H-pyrrolo[2,3-d]pyrimidine-5-carbonitrile], the IC50 lay within 10 to 100 nM.
Then `CCNc1nc(Nc2cc3c(cc2OC)C(=O)N(C)C3)nc2[nH]cc(C#N)c12` [Example 130, 4-(ethylamino)-2-((6-methoxy-2-methyl-1-oxoisoindol-5-yl)amino)-7H-pyrrolo[2,3-d]pyrimidine-5-carbonitrile], with less than 10 nM; and `COc1cc(C(=O)N2CCOCC2)c(F)cc1Nc1nc(OC2(C)CC2)c2c(C#N)c[nH]c2n1` [Example 97, 2-((5-fluoro-2-methoxy-4-(morpholine-4-carbonyl)phenyl)amino)-4-(1-methylcyclopropoxy)-7H-pyrrolo[2,3-d]pyrimidine-5-carbonitrile], with less than 10 nM; and `CCNc1nc(Nc2ccc3c(c2)CN(C)C3=O)nc2[nH]cc(C(F)(F)F)c12` [Example 136, 5-((4-(ethylamino)-5-(trifluoromethyl)-7H-pyrrolo[2,3-d]pyrimidine-2-yl)amino)-2-methylisoindolin-1-one], with 10 to 100 nM.
For the compound `CNc1nc(Nc2cc(F)c(C(=O)NC3CCN(C)CC3)cc2OC)nc2[nH]cc(C#N)c12` [Example 65, 4-((5-cyano-4-(methylamino)-7H-pyrrolo[2,3-d]pyrimidine-2-yl)amino)-2-fluoro-5-methoxy-N-(1-methylpiperidine-4-yl)benzamide], the IC50 was less than 10 nM.
`COc1cc(C(=O)N2CCOCC2)c(F)cc1Nc1nc(NC2(C)CC2)c2c(C#N)c[nH]c2n1` [Example 37, 2-((5-fluoro-2-methoxy-4-(morpholine-4-carbonyl)phenyl)amino)-4-((1-methylcyclopropyl)amino)-7H-pyrrolo[2,3-d]pyrimidine-5-carbonitrile]: the IC50 is less than 10 nM.
For the compound `CC1(Oc2nc(Nc3cnn([C@H]4CCN(C5COC5)C[C@@H]4F)c3)nc3[nH]cc(C#N)c23)CC1` [Example 101, 2-((1-((3S,4S)-3-fluoro-1-(oxetane-3-yl)piperidine-4-yl)-1H-pyrazole-4-yl)amino)-4-(1-methylcyclopropoxy)-7H-pyrrolo[2,3-d]pyrimidine-5-carbonitrile], the IC50 is less than 10 nM.
Then `Cc1nn(C(C)C)cc1Nc1nc(NC2(C)CC2)c2c(C#N)c[nH]c2n1` [Example 39, 2-((1-isopropyl-3-methyl-1H-pyrazole-4-yl)amino)-4-((1-methylcyclopropyl)amino)-7H-pyrrolo[2,3-d]pyrimidine-5-carbonitrile], with less than 10 nM.
In the case of `COc1cc(C(=O)N2CCOCC2)ccc1Nc1nc(NC2CC2)c2c(C(F)(F)F)c[nH]c2n1` [Example 118, (4-((4-(cyclopropylamino)-5-(trifluoromethyl)-7H-pyrrolo[2,3-d]pyrimidine-2-yl)amino)-3-methoxyphenyl)(morpholino)methanone], the IC50 was less than 10 nM.
For `CCNc1nc(Nc2cc3c(cc2OC)N(C)C(=O)C(C)(C)O3)nc2[nH]cc(C#N)c12` [Example 131, 4-(ethylamino)-2-((6-methoxy-2,2,4-trimethyl-3-oxo-3,4-dihydro-2H-benzo[b][1,4]oxazine-7-yl)amino)-7H-pyrrolo[2,3-d]pyrimidine-5-carbonitrile], the IC50 lay within 10 to 100 nM.
`CCNc1nc(Nc2cnn(CCO)c2)nc2[nH]cc(C#N)c12` [Example 70, 4-(ethylamino)-2-((1-(2-hydroxyethyl)-1H-pyrazole-4-yl)amino)-7H-pyrrolo[2,3-d]pyrimidine-5-carbonitrile]: the IC50 was less than 10 nM.
Turning to `CCNc1nc(Nc2cc(F)c(C(=O)N3CCOCC3)cc2OC)nc2[nH]cc(C#N)c12` [Example 6, 4-(ethylamino)-2-((5-fluoro-2-methoxy-4-(morpholine-4-carbonyl)phenyl)amino)-7H-pyrrolo[2,3-d]pyrimidine-5-carbonitrile], the IC50 is less than 10 nM.
Turning to `CCNc1nc(Nc2ccc(C(=O)N3CCO[C@H](C)C3)cc2OC)nc2[nH]cc(C(F)(F)F)c12` [Example 108, (R)-(4-((4-(ethylamino)-5-(trifluoromethyl)-7H-pyrrolo[2,3-d]pyrimidine-2-yl)amino)-3-methoxyphenyl)(2-methylmorpholino)methanone], the IC50 is 10 to 100 nM.
Take `COc1cc(C(=O)N2CCC(N3CCOCC3)CC2)ccc1Nc1nc(OC2CCOCC2)c2c(C#N)c[nH]c2n1` [Example 85]: the IC50 was less than 10 nM.
`CNc1nc(Nc2ccc(C(=O)N3CCN(C4COC4)CC3)cc2OC)nc2[nH]cc(C#N)c12` [Example 57]: the IC50 is less than 10 nM.
Under `CCNc1nc(Nc2cc3c(cc2OC)N(C)C(=O)C(C)(C)O3)nc2[nH]cc(C(F)(F)F)c12` [Example 137, 7-((4-(ethylamino)-5-(trifluoromethyl)-7H-pyrrolo[2,3-d]pyrimidine-2-yl)amino)-6-methoxy-2,2,4-trimethyl-2H-benzo[1,4]oxazine-3(4H)-one] stands more than 100 nM; under `COc1cc(C(=O)N2CCO[C@@H](C)C2)ccc1Nc1nc(OC2(C)CC2)c2c(C#N)c[nH]c2n1` [Example 99, (S)-2-((2-methoxy-4-(2-methylmorpholine-4-carbonyl)phenyl)amino)-4-(1-methylcyclopropoxy)-7H-pyrrolo[2,3-d]pyrimidine-5-carbonitrile], less than 10 nM.
`COc1cc(C(=O)N2C[C@@H](C)O[C@@H](C)C2)ccc1Nc1nc(NC2(C)CC2)c2c(C#N)c[nH]c2n1` [Example 44, 2-((4-((2R,6S)-2,6-dimethylmorpholine-4-carbonyl)-2-methoxyphenyl)amino)-4-((1-methylcyclopropyl)amino)-7H-pyrrolo[2,3-d]pyrimidine-5-carbonitrile]: the IC50 fell in the range of 10 to 100 nM.
In the case of `COc1cc(C(=O)N2CCOCC2)ccc1Nc1nc(O[C@@H]2CCOC2)c2c(C#N)c[nH]c2n1` [Example 89, (R)-2-((2-methoxy-4-(morpholine-4-carbonyl)phenyl)amino)-4-((tetrahydrofuran-3-yl)oxy)-7H-pyrrolo[2,3-d]pyrimidine-5-carbonitrile], the IC50 is less than 10 nM.
With `CCNc1nc(Nc2cc(OC)c(OC)c(OC)c2)nc2[nH]cc(C#N)c12` [Example 3, 4-(ethylamino)-2-((3,4,5-trimethoxyphenyl)amino)-7H-pyrrolo[2,3-d]pyrimidine-5-carbonitrile], the IC50 is less than 10 nM.
With `CNc1nc(Nc2ccc(C(=O)N3CCOCC3)cc2OC)nc2[nH]cc(C(F)(F)F)c12` [Example 112, (3-methoxy-4-((4-(methylamino)-5-(trifluoromethyl)-7H-pyrrolo[2,3-d]pyrimidine-2-yl)amino)phenyl)(morpholino)methanone], the IC50 lay in the range of 10 to 100 nM.
Under `CCNc1nc(Nc2ccc(C(=O)N3C[C@@H](C)O[C@@H](C)C3)cc2OC)nc2[nH]cc(C#N)c12` [Example 24, 2-((4-((2R,6S)-2,6-dimethylmorpholine-4-carbonyl)-2-methoxyphenyl)amino)-4-(ethylamino)-7H-pyrrolo[2,3-d]pyrimidine-5-carbonitrile] stands less than 10 nM.
Regarding `COc1cc(C(=O)NC2CCN(C)CC2)c(F)cc1Nc1nc(NC2(C)CC2)c2c(C#N)c[nH]c2n1` [Example 83, 4-((5-cyano-4-((1-methylcyclopropyl)amino)-7H-pyrrolo[2,3-d]pyrimidine-2-yl)amino)-2-fluoro-5-methoxy-N-(1-methylpiperidine-4-yl)benzamide], the IC50 is less than 10 nM.
